Results published in patent US20240238282A1, “METHODS OF TREATING CANCER AND ISCHEMIA DISEASES BY INHIBITION AND INTERVENTION OF ATR PROLYL ISOMERIZATION” (The University of Toledo, priority 2022, published 2024).

Test system: patient derived PDCL5 cells of metastatic pancreatic cancer
Test: Cell killing of patient-derived pancreatic cancer PDCL5 cells by gemcitabine, LB-100 or the combination
Format: cell-based, human
Conditions: single agent: gemcitabine 1.0 uM or LB-100 5 uM, 72 hours (FIG. 3E)
Protocol: FIGS. 3A-3E: Analysis of the antiapoptotic function of cis-ATR in human cancer via TCGA data mining. […] FIGS. 3F-3G show two patient-derived pancreatic cancer cells, PDCL5 and PDCL15, subjected to MTT assays after treating with the PDAC therapy drug gemcitabine (1.0 μM or 0.3 μM, respectively) and PP2A inhibitor LB-100 (5 μM), alone or in combination, for 72 hours. PANC-1 cells were treated with gemcitabine (1.0 μM) or FOLFIRINOX (5-FU, 10 μM, oxaliplatin, 0.1 μM, leucovorin, 0.15 μM, irinotecan, 0.1 μM), alone or in combination with LB-100 (1.0 μM), for 72 hours before the MTT assay.
To further validate the above observations are not at random, the 5-year survival probability (SP) of different subgroups was calculated for all 17 cancer types, and paired Wilcoxon rank-sum tests were performed. […] The SP difference of DAPK1 expression level is not significant, likely because DAPK indirectly regulates cis-ATR while ATR is a direct substrate of Pin1 and PP2A. […] This remains true even for the analysis regardless of cancer types (FIG. 3D). […]
MTT viability assays were performed according to the manufacturer's specifications (Cayman's MTT Proliferation Assay kit #10009365), and […]. […]

SMILES: Nc1ccn([C@@H]2O[C@H](CO)[C@@H](O)C2(F)F)c(=O)n1 [Gemcitabine, gemcitabine]
- cell death induced: little cell death

SMILES: CN1CCN(C(=O)C2C3CCC(O3)C2C(=O)O)CC1 (centres unmarked) [LB-100]
- cell death induced: little cell death
